Source: patent US20230242544A1, “QUINAZOLINE COMPOUNDS, PREPARATION METHODS AND USES THEREOF” (INVENTISBIO CO., LTD., priority 2020, published 2023)

Assays:
Ba/F3_KRAS^G12D cells = Ba/F3_KRAS^G12D cells (Homo sapiens, UniProt P01116, G12D, cells depend on it); assay: Ba/F3 KRAS G12D cell proliferation assay (CellTiter-Glo); format: cell-based; details: treated for 3 days, cell-titer Glo, cell growth inhibition, read-out: BaF3_KRAS^G12D IC50
Protocol: Ba/F3_KRAS^G12D cells (KYinno, China) were generated by transducing Ba/F3 parental cells with the recombinant KRAS^G12D lentivirus and followed by 1 ug/mL of puromycin selection and IL3 depletion. […] Cells were seeded at a density of 5×10^3 per well into 96-well plate and incubated overnight. Serial diluted compounds were added to each well. Cells were treated with the compounds for 3 days, after which cell-titer Glo reagent (Promega #G7572) was used to assess cell proliferation. The luminescence signal was then collected on Tecan Spark plate reader. […] Cell growth inhibition of IC50 is calculated with the equation of Y=Bottom+(Top−Bottom)/(1+10^((Log IC50−X)*Hill Slope))

[1] = target: recombinant human KRAS^G12D protein (Homo sapiens, UniProt P01116, G12D); assay: Temperature-dependent Fluorescence (TdF) KRAS G12D protein binding assay; details: 6 μM KRAS^G12D protein, 10 μM compound, Sypro Orange; Kd calculated from the fluorescent shift
recombinant human KRAS^G12D protein, sequence (P01116 1-188 isoform P01116-2 G12D): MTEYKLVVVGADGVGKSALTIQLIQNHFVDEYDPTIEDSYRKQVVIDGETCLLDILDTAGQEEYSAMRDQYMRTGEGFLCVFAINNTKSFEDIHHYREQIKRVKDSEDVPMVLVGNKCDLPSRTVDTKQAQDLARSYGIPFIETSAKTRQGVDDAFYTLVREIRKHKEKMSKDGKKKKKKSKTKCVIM
Protocol: The Temperature-dependent Fluorescence (TdF) assay was used to analyze binding affinity of compound to recombinant human KRAS^G12D protein. The TdF assay was conducted in the 96-well-based real-time fluorescence plate reader (ABI 7500 or Roche LightCycler 480). Fluorescent dye Sypro Orange (Sigma) was used to monitor the protein folding-unfolding transition. Protein-compound binding was gauged by the shift in the unfolding transition temperature (ΔTm) acquired with and without compound. Each reaction sample consists of 6 μM KRAS^G12D Protein, 10 μM compound, and Sypro Orange dye (in 1% DMSO) in 20 μL reaction buffer (25 mM HEPES pH 7.5, 150 mM NaCl, 10 mM MgCl2). […] Binding affinity (Kd value) was calculated based on the degree of fluorescent shift of the protein with and without compound.

Ba/F3_KRAS^G12D cells, sequence (P01116 whole entry G12D): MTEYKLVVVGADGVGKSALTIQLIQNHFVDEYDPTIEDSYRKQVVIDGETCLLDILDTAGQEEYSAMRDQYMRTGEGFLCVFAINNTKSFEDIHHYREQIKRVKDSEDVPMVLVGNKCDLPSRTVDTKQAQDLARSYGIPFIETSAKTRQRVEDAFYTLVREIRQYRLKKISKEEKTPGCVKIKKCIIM

| Structure (SMILES) | GI50 (Ba/F3_KRAS^G12D cells) | Kd [1] |
| --- | --- | --- |
| Nc1cccc(F)c1-c1c(Cl)cc2c(N3CCNCC3)nc(OCC34CCCN3CCC4)nc2c1F [Compound 14] | > 5 µM | > 5 µM |
| CNC1CCN(c2nc(OC[C@@H]3CCCN3C)nc3c(F)c(-c4cc(O)cc5cccc(Cl)c45)c(Cl)cc23)C1 (stereo partly shown) [Compound 16] | 0.5 to 5 µM | > 5 µM |
| CN1CCC[C@H]1COc1nc(N2CC3(CNC3)C2)c2cc(Cl)c(-c3cc(O)cc4cccc(Cl)c34)c(F)c2n1 [Compound 17] | > 5 µM | > 5 µM |
| CN1CCC[C@H]1COc1nc(N2CCC3NCC32)c2cc(Cl)c(-c3cc(O)cc4cccc(Cl)c34)c(F)c2n1 (stereo partly shown) [Compound 18] | 0.5 to 5 µM | > 5 µM |
| CN1CCC[C@H]1COc1nc(N2CC3(CCNC3)C2)c2cc(Cl)c(-c3cc(O)cc4cccc(Cl)c34)c(F)c2n1 [Compound 19] | > 5 µM | > 5 µM |
| C[C@@H]1CN(c2nc(OC[C@@H]3CCCN3C)nc3c(F)c(-c4cc(O)cc5cccc(Cl)c45)c(Cl)cc23)[C@@H](C)CN1 [Compound 21] | 0.5 to 5 µM | > 5 µM |
| C[C@H]1CNCCN1c1nc(OC[C@@H]2CCCN2C)nc2c(F)c(-c3cc(O)cc4cccc(Cl)c34)c(Cl)cc12 [Compound 22] | 0.5 to 5 µM | > 5 µM |
| CN1CCC[C@H]1COc1nc(N2CCNCC23CC3)c2cc(Cl)c(-c3cc(O)cc4cccc(Cl)c34)c(F)c2n1 [Compound 23] | 0.5 to 5 µM | 0.5 to 5 µM |
| CN1CCC[C@H]1COc1nc(N2C[C@H]3NCC[C@H]32)c2cc(Cl)c(-c3cc(O)cc4cccc(Cl)c34)c(F)c2n1 [Compound 25] | 0.5 to 5 µM | > 5 µM |
| CN1CCC[C@H]1COc1nc(N2CC3CCC(C2)N3)c2cc(Cl)c(-c3nc(N)cc4ccccc34)c(F)c2n1 [Compound 27] | 0.5 to 5 µM | > 5 µM |
| Fc1c(-c2cccc3cccc(Cl)c23)c(Cl)cc2c(N3CCNCC3)nc(OCC34CCCN3CCC4)nc12 [Compound 28] | < 0.5 µM | > 5 µM |
| Oc1cc(-c2c(Cl)cc3c(N4CCNCC4)nc(OCC45CCCN4CCC5)nc3c2F)c2ccccc2c1 [Compound 29] | 0.5 to 5 µM | > 5 µM |
| CN1CCC[C@H]1COc1nc(N2CC3CCC(C2)N3)c2cc(Cl)c(-c3c(N)cccc3F)c(F)c2n1 [Compound 31] | 0.5 to 5 µM | > 5 µM |
| Nc1cccc(F)c1-c1c(Cl)cc2c(N3CC4CCC(C3)N4)nc(OCC34CCCN3CCC4)nc2c1F [Compound 32] | > 5 µM | 0.5 to 5 µM |
| Oc1cc(-c2c(Cl)cc3c(N4C5CCC4CNC5)nc(OCC45CCCN4CCC5)nc3c2F)c2ccccc2c1 [Compound 33] | 0.5 to 5 µM | < 0.5 µM |
| CN1CC(F)(F)CC1COc1nc(N2CC3CCC(C2)N3)c2cc(Cl)c(-c3cc(O)cc4cccc(Cl)c34)c(F)c2n1 (stereo not shown) [Compound 35] | 0.5 to 5 µM | 0.5 to 5 µM |
| C[C@@H]1CN(c2nc(OCC3CN(C)C3)nc3c(F)c(-c4cc(O)cc5ccccc45)c(Cl)cc23)[C@@H](C)CN1 [Compound 36] | 0.5 to 5 µM | > 5 µM |
| CN(C)C1CN(c2nc(N3CC4CCC(C3)N4)c3cc(Cl)c(-c4cc(O)cc5ccccc45)c(F)c3n2)C1 [Compound 39] | 0.5 to 5 µM | > 5 µM |
| CN1CC2CN(c3nc(N4CC5CCC(C4)N5)c4cc(Cl)c(-c5cc(O)cc6ccccc56)c(F)c4n3)CC2C1 (stereo not shown) [Compound 40] | 0.5 to 5 µM | > 5 µM |
| CN1CCC2(CC1)CCN(c1nc(N3CC4CCC(C3)N4)c3cc(Cl)c(-c4cc(O)cc5ccccc45)c(F)c3n1)C2 [Compound 41] | 0.5 to 5 µM | > 5 µM |

The next lines start with the values.

| GI50 (Ba/F3_KRAS^G12D cells) | Kd [1] | Structure (SMILES) |
| --- | --- | --- |
| 0.5 to 5 µM | > 5 µM | CN1CCC2CCN(c3nc(N4CC5CCC(C4)N5)c4cc(Cl)c(-c5cc(O)cc6ccccc56)c(F)c4n3)CC21 (stereo not shown) [Compound 42] |
| 0.5 to 5 µM | > 5 µM | CN1CCC2CN(c3nc(N4CC5CCC(C4)N5)c4cc(Cl)c(-c5cc(O)cc6ccccc56)c(F)c4n3)CC2C1 (stereo not shown) [Compound 43] |
| 0.5 to 5 µM | > 5 µM | CN1CCC2(CCN(c3nc(N4CC5CCC(C4)N5)c4cc(Cl)c(-c5cc(O)cc6ccccc56)c(F)c4n3)C2)C1 (stereo not shown) [Compound 44] |
| 0.5 to 5 µM | > 5 µM | CN1CC2(CCN(c3nc(N4CC5CCC(C4)N5)c4cc(Cl)c(-c5cc(O)cc6ccccc56)c(F)c4n3)CC2)C1 [Compound 45] |
| > 5 µM | 0.5 to 5 µM | Oc1cc(-c2c(Cl)cc3c(N4CC5CCC(C4)N5)nc(OCCN4CCC(O)C4)nc3c2F)c2ccccc2c1 (stereo not shown) [Compound 46] |
| < 0.5 µM | < 0.5 µM | Cc1cccc2cc(O)cc(-c3c(Cl)cc4c(N5CC6CCC(C5)N6)nc(OC[C@@]56CCCN5C[C@H](F)C6)nc4c3F)c12 [Compound 47] |
| > 5 µM | > 5 µM | CC(C)N1CC(Nc2nc(N3C[C@@H](C)NC[C@@H]3C)c3cc(Cl)c(-c4cc(O)cc5ccccc45)c(F)c3n2)C1 [Compound 49] |
| 0.5 to 5 µM | 0.5 to 5 µM | CN1CC(COc2nc(N3CC4CCC(C3)N4)c3cc(Cl)c(-c4cc(O)cc5ccccc45)c(F)c3n2)CC(F)(F)C1 (stereo not shown) [Compound 50] |
| 0.5 to 5 µM | > 5 µM | CN(C)CC1CN(c2nc(N3CC4CCC(C3)N4)c3cc(Cl)c(-c4cc(O)cc5ccccc45)c(F)c3n2)C1 [Compound 51] |
| 0.5 to 5 µM | > 5 µM | CN(C)C1CCN(c2nc(N3CC4CCC(C3)N4)c3cc(Cl)c(-c4cc(O)cc5ccccc45)c(F)c3n2)C1 (stereo not shown) [Compound 52] |
| 0.5 to 5 µM | > 5 µM | CN(C)CC1CCN(c2nc(N3CC4CCC(C3)N4)c3cc(Cl)c(-c4cc(O)cc5ccccc45)c(F)c3n2)CC1 [Compound 53] |
| 0.5 to 5 µM | > 5 µM | CN(C)C1CCN(c2nc(N3CC4CCC(C3)N4)c3cc(Cl)c(-c4cc(O)cc5ccccc45)c(F)c3n2)CC1 [Compound 54] |
| < 0.5 µM | < 0.5 µM | N#Cc1cc2c(N3CC4CCC(C3)N4)nc(OC[C@@]34CCCN3C[C@H](F)C4)nc2c(F)c1-c1cc(O)cc2cccc(Cl)c12 [Compound 55] |
| 0.5 to 5 µM | > 5 µM | CN(C)C1CCCN(c2nc(N3CC4CCC(C3)N4)c3cc(Cl)c(-c4cc(O)cc5ccccc45)c(F)c3n2)C1 (stereo not shown) [Compound 56] |
| 0.5 to 5 µM | > 5 µM | CN1CCOCC1COc1nc(N2CC3CCC(C2)N3)c2cc(Cl)c(-c3cc(O)cc4ccccc34)c(F)c2n1 (stereo not shown) [Compound 57] |
| < 0.5 µM | < 0.5 µM | Oc1cc(-c2c(Cl)cc3c(N4CC5CCC(C4)N5)nc(OC[C@@]45CCCN4C[C@H](F)C5)nc3c2F)c2c(Cl)cccc2c1 [Compound 58] |
| 0.5 to 5 µM | > 5 µM | Oc1cc(-c2c(Cl)cc3c(N4CC5CCC(C4)N5)nc(OCCN4CCOCC4)nc3c2F)c2ccccc2c1 [Compound 59] |
| 0.5 to 5 µM | > 5 µM | CN1CCC(c2nc(N3CC4CCC(C3)N4)c3cc(Cl)c(-c4cc(O)cc5ccccc45)c(F)c3n2)CC1 [Compound 60] |
| 0.5 to 5 µM | < 0.5 µM | Oc1cc(-c2c(Cl)cc3c(N4CC5CCC(C4)N5)nc(OCC45CCCN4CCC5)nc3c2F)c2c(Cl)cccc2c1 [Compound 61] |
| < 0.5 µM | 0.5 to 5 µM | Fc1c(-c2cccc3cccc(Cl)c23)c(Cl)cc2c(N3CC4CCC(C3)N4)nc(OCC34CCCN3CCC4)nc12 [Compound 64] |
| 0.5 to 5 µM | < 0.5 µM | Oc1cc(-c2c(Cl)cc3c(N4CC5CCC(C4)N5)nc(OCC45CCCN4CC(F)(F)C5)nc3c2F)c2c(Cl)cccc2c1 (stereo not shown) [Compound 65] |
| > 5 µM | > 5 µM | Nc1cccc(F)c1-c1c(Cl)cc2c(N3C4CCC3CNC4)nc(OCC34CCCN3CCC4)nc2c1F [Compound 66] |
| > 5 µM | 0.5 to 5 µM | Oc1cccc(F)c1-c1c(Cl)cc2c(N3C4CCC3CNC4)nc(OCC34CCCN3CCC4)nc2c1F [Compound 67] |
| 0.5 to 5 µM | 0.5 to 5 µM | Fc1c(-c2cccc3ccccc23)c(Cl)cc2c(N3CC4CCC(C3)N4)nc(OCC34CCCN3CCC4)nc12 [Compound 69] |
| > 5 µM | 0.5 to 5 µM | Oc1ccc2ccccc2c1-c1c(Cl)cc2c(N3CC4CCC(C3)N4)nc(OCC34CCCN3CCC4)nc2c1F [Compound 70] |
| 0.5 to 5 µM | 0.5 to 5 µM | Fc1c(-c2cccc3cccc(Cl)c23)c(Cl)cc2c(N3C4CCC3CNC4)nc(OCC34CCCN3CCC4)nc12 [Compound 72] |
| < 0.5 µM | < 0.5 µM | Oc1cc(-c2c(Cl)cc3c(N4CC5CCC(C4)N5)nc(OC[C@@]45CCCN4C[C@H](F)C5)nc3c2F)c2c(Cl)c(F)ccc2c1 [Compound 74] |
| 0.5 to 5 µM | > 5 µM | Cc1cccc2[nH]nc(-c3c(Cl)cc4c(N5CC6CCC(C5)N6)nc(OC[C@@H]5CCCN5C)nc4c3F)c12 [Compound 75] |
| 0.5 to 5 µM | < 0.5 µM | CN1C[C@H](F)C[C@H]1COc1nc(N2CC3CCC(C2)N3)c2cc(Cl)c(-c3cc(O)cc4ccccc34)c(F)c2n1 [Compound 76] |
| 0.5 to 5 µM | > 5 µM | Oc1cc(-c2c(Cl)cc3c(N4CC5CCC(C4)N5)nc(OCCN4CCCC4)nc3c2F)c2ccccc2c1 [Compound 78] |
